Reference: ChEMBL document CHEMBL1148156, “Chemical constituents of Millettia taiwaniana: structure elucidation of five new isoflavonoids and their cancer chemopreventive activity” (2004)

Legend:
Format in all cases: functional
Mus musculus [1] = assay: Inhibition of DMBA-induced/TPA-promoted carcinogenesis in ICR mouse assessed as number of skin papillomas per mouse at 85 nmol administered 1 hr before TPA treatment measured after 20 weeks
Mus musculus [2] = assay: Inhibition of DMBA-induced/TPA-promoted carcinogenesis in ICR mouse assessed as mouse bearing papillomas at 85 nmol administered 1 hr before TPA treatment measured after 20 weeks; design: scale not given: the % may be the effect or the level left
Mus musculus [3] = assay: Inhibition of DMBA-induced/TPA-promoted carcinogenesis in ICR mouse assessed as number of skin papillomas per mouse at 85 nmol administered 1 hr before TPA treatment measured after 14 weeks
Mus musculus [4] = assay: Inhibition of DMBA-induced/TPA-promoted carcinogenesis in ICR mouse assessed as mouse bearing papillomas at 85 nmol administered 1 hr before TPA treatment measured after 10 weeks; design: scale not given: the % may be the effect or the level left
Mus musculus [5] = assay: Inhibition of DMBA-induced/TPA-promoted carcinogenesis in ICR mouse assessed as mouse bearing papillomas at 85 nmol administered 1 hr before TPA treatment measured after 8 weeks; design: scale not given: the % may be the effect or the level left

SMILES: CC(C)=CCc1c2c(c(O)c3c(=O)c(-c4ccc(O)c(O)c4)coc13)C=CC(C)(C)O2 [AURICULASIN]
- Activity (Mus musculus [1]): 4.9
- Activity (Mus musculus [2]): 87%
- Activity (Mus musculus [3]): <3
- Activity (Mus musculus [4]): 27%
- Activity (Mus musculus [5]): 13%
